Laboratory results from US4385047A, “Antiallergic imidodisulfamides” (SmithKline Beckman Corporation, priority 1981, dated 1983).

Tested on: partially purified slow reacting substance of anaphylaxis (SRS-A) obtained from guinea pig lung
Experiment: Inhibition of SRS-A induced contraction of guinea pig ileum
Settings: compound concentration 5×10^-6 M, agonist SRS-A 40 μg/ml, 15 min, 5 µM
Protocol: The SRS-A antagonist activity of the compounds of this invention is measured by the ability of the active medicament to inhibit SRS-A induced contraction of guinea pig ileum. In this test system, sections of ileum are resected from guinea pigs and placed in 5 ml. tissue baths containing a modified Tyrode's solution. One end of the tissue is fixed to a glass tissue holder, the other is connected to a force-displacement transducer and the tissue is placed under a tension of 500 mg. Isometric tissue contractions are recorded on a six channel polygraph. Baths are constantly aerated with 95% O2 -5% CO2. After a 20 minute stabilization period a concentration of the appropriate agonist which provides a contraction height of 60-80% of the maximum obtainable to that agonist (as determined from full sequential concentration--response curves in separate experiments) is added to the tissue bath and the response recorded. The procedure is repeated until reproducible responses are obtained. […] Percent inhibition produced by the test compound is calculated by subtracting the mean percentage change in control tissue from the mean percentage change in tissues exposed to the test compound. Additional compounds are then evaluated as long as the tissue remains reproducibly responsive to the agonist. […]

SMILES: O=C(CS(=O)(=O)c1ccc2c(c1)CN(S(=O)(=O)NS(=O)(=O)N1CCc3ccc(S(=O)(=O)CC(=O)c4ccc(Cl)cc4)cc3C1)CC2)c1ccc(Cl)cc1 [Compound 1, N,N'-bis[7-(4-chlorobenzoylmethylsulfonyl)-1,2,3,4-tetrahydroisoquinolyl]disulfonylimide]
- percent antagonism of SRS-A induced contraction: 60%
